From patent US10688099B2, “Methods for modulating the amount of RNA transcripts” (PTC Therapeutics, Inc., priority 2013, dated 2020)

Tested on: RNA isoforms in PNN 1-46 SMA type I patient-derived fibroblasts
Assay: RNA Abundance Modulation (RNA isoform abundance, iFPM, HiSeq RNA sequencing)
Assay type: cell-based, human
Conditions: 3 μM
Protocol: Cells from a cell line of interest are cultured in conditions sufficient to yield the number of cells capable of generating enough RNA for subsequent sequencing steps. Cells from the tested cell line are contacted with a compound described herein.
To culture said cells, they are seeded, at appropriate concentrations in a volume of media in a cell culture container and incubated for 4, 5, 6, 7, 8, 9, 10, or more hours. A concentrated solution of compound in a vehicle (e.g., DMSO) is then added in sufficient volume to result in the intended final concentration of the compound, for example 100 nM, 500 nM, 1 μM, 5 μM, 10 μM, 15 μM, 20 μM, or more. The cells may also be treated with vehicle alone, as a control. A number of replicates of each concentration or control may be made (e.g., 2 replicates). The cells are then incubated at a constant temperature appropriate for cell culture of the particular cell line (e.g., 37° C.) for 6, 12, 18, 24, 48, or more hours. After incubation, the growth medium is removed and the cells are washed with the appropriate buffer (e.g., PBS). Cells are then removed from adherence to the cell culture container by treatment with a solution containing trypsin, and the trypsin subsequently quenched with the appropriate volume of buffer (e.g., DMEM-FBS). The cells are then pelleted with gentle centrifugation (e.g., ≤90×g centrifugal force) and resuspended in a buffer to lyse the cells for extraction of RNA. The cell lysates may then be frozen (e.g., at −80° C.) or, alternately, may immediately be used in a procedure to purify the RNA (e.g. by use of the RNEASY PLUS® minikit). The RNA from cell lysates is eluted in the appropriate volume of buffer (e.g., RNEASE-FREE H2O®). The resulting purified RNA may then be sequenced (e.g., using RNASeq) or analyzed using a human exon array (e.g., by GENECHIP® human exon array) to determine changes in the RNA levels in those cells treated with compound compared to those cells treated only with DMSO. The purified RNA may also be quantified by other methods known in the art.
Using the RNA data obtained from sequencing, exon array, or other methods, a statistical analysis can reveal changes in the RNA levels of compound-treated compared with control. For example, t-test p-values may be calculated for the data obtained through sequencing and exon array methods in order to compare compound-treated cells to those treated with the DMSO control. […] Analysis of the sequencing and exon array data may then also yield predictions about the cause of the aberrant amount of an RNA transcript in the cells (e.g., perturbation of RNA splicing, RNA transcription, or RNA stability). These predictions may be further confirmed by methods known in the art. For example, RT-PCR and RT-qPCR may be used to confirm the change in amount of RNA transcripts for one or more particular transcripts of interest.
Following the methods described above in Example 1, PNN 1-46 SMA type I patient-derived fibroblasts were treated with 300 nM or 3 μM Compounds 774 and 808 in 0.5% DMSO.
700,000 cells were seeded in 10 mL of medium (DMEM plus 10% FBS) in a T-75 flask. Cells were allowed to attach for at least 4 hrs, after which 50 μL of a 200× compound solution (100% DMSO) was added to each well, and the plate was incubated at 37° C. for 24 hrs.
At the end of the incubation period, the supernatant was removed and the cells where washed with PBS. TrypLE (Invitrogen) express solution was added (e.g. 1.5 mL per one T75 flask). The flasks were incubated for 3 to 5 min at 37° C. The trypsin was then quenched, e.g., by adding 10 mL DMEM-FBS.
Next, the cells were pelleted using gentle centrifugation without exceeding 90×g centrifugal force. The supernatant was removed and the cell pellet was re-suspended in 600 μL RLT buffer (the RLT buffer was supplemented with beta-mercaptoethanol according to the RNeasy protocol manual) by pipetting up and down until the pellet was completely dissolved […]

CCc1nc(C)cn2nc(-c3cc(=O)n4cc(C5CCN(C)CC5)cc(C)c4n3)cc12 [Compound 774]
amp FC (x + 1) (U2SURP BC006474): 1.09 | ave Cpd (U2SURP BC006474): 1249 iFPM | FC (x + 1) (U2SURP BC111692): 1.9191 | L2FC (x + 1) (U2SURP BC111692): 0.940 | L2abs (Cpd-DMSO) (U2SURP BC111692): 3.18 | abs (Cpd-DMSO) (U2SURP BC111692): 9 iFPM | amp FC (x + 1) (U2SURP BC111692): 1.92 | ave Cpd (U2SURP BC111692): 18 iFPM | FC (x + 1) (U2SURP NM_001080415): 2.2780 | L2FC (x + 1) (U2SURP NM_001080415): 1.188 | L2abs (Cpd-DMSO) (U2SURP NM_001080415): 7.79 | abs (Cpd-DMSO) (U2SURP NM_001080415): 222 iFPM | amp FC (x + 1) (U2SURP NM_001080415): 2.28 | ave Cpd (U2SURP NM_001080415): 395 iFPM | FC (x + 1) (UBAP2L AJ243668): 0.4506 | L2FC (x + 1) (UBAP2L AJ243668): −1.150 | L2abs (Cpd-DMSO) (UBAP2L AJ243668): 6.40 | abs (Cpd-DMSO) (UBAP2L AJ243668): 84 iFPM | amp FC (x + 1) (UBAP2L AJ243668): 2.22 | ave Cpd (UBAP2L AJ243668): 68 iFPM | FC (x + 1) (UBAP2L AJ243669): 0.2687 | L2FC (x + 1) (UBAP2L AJ243669): −1.896 | L2abs (Cpd-DMSO) (UBAP2L AJ243669): 6.45 | abs (Cpd-DMSO) (UBAP2L AJ243669): 88 iFPM | amp FC (x + 1) (UBAP2L AJ243669): 3.72 | ave Cpd (UBAP2L AJ243669): 31 iFPM | FC (x + 1) (UBAP2L AJ243670): 3.1873 | L2FC (x + 1) (UBAP2L AJ243670): 1.672 | L2abs (Cpd-DMSO) (UBAP2L AJ243670): 1.13 | abs (Cpd-DMSO) (UBAP2L AJ243670): 2 iFPM | amp FC (x + 1) (UBAP2L AJ243670): 3.19 | ave Cpd (UBAP2L AJ243670): 2 iFPM | FC (x + 1) (UBAP2L AK124294): 0.4670 | L2FC (x + 1) (UBAP2L AK124294): −1.099 | L2abs (Cpd-DMSO) (UBAP2L AK124294): 5.20 | abs (Cpd-DMSO) (UBAP2L AK124294): 37 iFPM | amp FC (x + 1) (UBAP2L AK124294): 2.14 | ave Cpd (UBAP2L AK124294): 31 iFPM | FC (x + 1) (UBAP2L AK302662): 0.2827 | L2FC (x + 1) (UBAP2L AK302662): −1.822 | L2abs (Cpd-DMSO) (UBAP2L AK302662): 8.14 | abs (Cpd-DMSO) (UBAP2L AK302662): 283 iFPM | amp FC (x + 1) (UBAP2L AK302662): 3.54 | ave Cpd (UBAP2L AK302662): 110 iFPM | FC (x + 1) (UBAP2L AK302953): 0.5118 | L2FC (x + 1) (UBAP2L AK302953): −0.966 | L2abs (Cpd-DMSO) (UBAP2L AK302953): 8.57 | abs (Cpd-DMSO) (UBAP2L AK302953): 381 iFPM | amp FC (x + 1) (UBAP2L AK302953): 1.95 | ave Cpd (UBAP2L AK302953): 399 iFPM | FC (x + 1) (UBAP2L AK303533): 0.0476 | L2FC (x + 1) (UBAP2L AK303533): −4.392 | L2abs (Cpd-DMSO) (UBAP2L AK303533): 4.32 | abs (Cpd-DMSO) (UBAP2L AK303533): 20 iFPM | amp FC (x + 1) (UBAP2L AK303533): 20.99 | ave Cpd (UBAP2L AK303533): 0 iFPM | FC (x + 1) (UBAP2L NM_014847): 0.3090 | L2FC (x + 1) (UBAP2L NM_014847): −1.695 | L2abs (Cpd-DMSO) (UBAP2L NM_014847): 10.25 | abs (Cpd-DMSO) (UBAP2L NM_014847): 1219 iFPM | amp FC (x + 1) (UBAP2L NM_014847): 3.24 | ave Cpd (UBAP2L NM_014847): 544 iFPM | FC (x + 1) (UBAP2L NM_001127320): 0.4857 | L2FC (x + 1) (UBAP2L NM_001127320): −1.042 | L2abs (Cpd-DMSO) (UBAP2L NM_001127320): 10.01 | abs (Cpd-DMSO) (UBAP2L NM_001127320): 1030 iFPM | amp FC (x + 1) (UBAP2L NM_001127320): 2.06 | ave Cpd (UBAP2L NM_001127320): 972 iFPM | FC (x + 1) (UBE2V1 NM_021988): 0.9186 | L2FC (x + 1) (UBE2V1 NM_021988): −0.122 | L2abs (Cpd-DMSO) (UBE2V1 NM_021988): 2.64 | abs (Cpd-DMSO) (UBE2V1 NM_021988): 6 iFPM | amp FC (x + 1) (UBE2V1 NM_021988): 1.09 | ave Cpd (UBE2V1 NM_021988): 69 iFPM | FC (x + 1) (UBE2V1 NM_022442): 0.2858
